# Tested on: striatal dopamine release
# Assay: Effect of TRH and tyrosine on striatal dopamine release (in vivo microdialysis)
# Parameters: species or system rats
# Excerpt: Groups of 7 male albino rats were implanted with a jugular venous catheter (for administering the drugs and withdrawing blood samples), and a microdialysis probe into the corpus striatum (for sampling fluid in equilibrium with intrasynaptic fluids).
# Animals were placed under deep urethane anesthesia for the duration of the experiment. Each animal received 10 micrograms of TRH or a saline placebo, and/or tyrosine at a dose of 20 micrograms per kilogram, or a saline placebo.
# Microdialysis samples (23 microliters of artificial cerebrospinal fluid per sample) were then collected at 15 minute intervals for 150 minutes, and rapidly assayed for dopamine, its chief metabolites (DOPAC and HVA), serotonin, and the serotonin metabolite, 5-HIAA.
Compound,"increase in dopamine release (tyrosine alone, 20 micrograms per kilogram, via jugular venous catheter, anesthetized rats, striatal microdialysis, after two hours)","other compounds measured in microdialysate (DOPAC, HVA, serotonin, 5-HIAA) (TRH 10 micrograms alone, anesthetized rats, striatal microdialysis)","increase (from the baseline) in dopamine release (TRH 10 micrograms alone, via jugular venous catheter, urethane-anesthetized male albino rats, corpus striatum microdialysis, after two hours)","effect on dopamine release (higher dose of TRH (50 micrograms) without tyrosine, anesthetized rats, striatal microdialysis)"
N[C@@H](Cc1ccc(O)cc1)C(=O)O [tyrosine],about 110%,,,
"NC(=O)[C@@H]1CCCN1C(=O)[C@H](Cc1c[nH]cn1)NC(=O)[C@@H]1CCC(=O)N1 [TRH, L-pyroglutamyl-L-histidyl-L-prolineamide]",,stable,190%,750%
